Measured values published in patent EP0149197B2, “Pharmaceutical compositions containing drugs which are sparingly soluble in water or instable and methods for their preparation” (priority 1983, dated 1985).
≈ marks a conversion by molar mass, not a printed value. Read-outs that look alike come from different tables or passages of the source. Marks after values point to notes of the source that are not given here.

Legend:
[1] = Saturation solubility with and without 4 % hydroxypropyl-methyl-β-cyclodextrin (DS 0,96; MS 0,43); type: physicochemical
Description: B. In ähnlicher Weise wurde die Löslichkeit von Arzneistoffen in einer 4 %-igen wässrigen Lösung von Hydroxypropyl-methyl-β-cyclodextrin (DS = 0,96; MS = 0,43) untersucht. Die erhaltenen Ergebnisse sind in der nachfolgenden Tabelle 2 zusammengefaßt, wobei für jeden Arzneistoff das Verhältnis R von Sättigungslöslichkeit in Wasser bzw. beim angegebenen pH-Wert mit und ohne Zusatz des β-Cyclodextrinderivats angegeben ist.

[2] = Saturation solubility in phosphate buffer with and without 10 % hydroxypropyl-β-cyclodextrin (MS 0.35); settings: for Verh.S1 zu S2: given as 1: x; for solubility thermodynamic at 24 h: phosphate buffer
Protocol: A. Unter Verwendung einer 10 %-igen Hydroxypropyl-β-cyclodextrinlösung (MS 0.35) in Phosphatpufferlösung wurde unter denselben Bedingungen wie in Beispiel 1 die Sättigungslöslichkeit bei 25°C für verschiedene Arzneistoffe bestimmt. In Tabelle 1 sind die Sättigungslöslichkeit S1 in Phosphatpufferlösung und S2 in Phosphatpufferlösung unter Zusatz von 10 % Hydroxypropyl-β-cyclodextrin angegeben. Tabelle 1

[3] = with the 2,6-Di-O-methylderivat of β-cyclodextrin; cited from earlier work
[4] = Storage stability of indometacin solutions at 21°C, HPLC content; type: physicochemical; settings: aqueous buffer; concentration of the saturated solution in phosphate buffer (solution A); read-out: gesättigte Lösung in Phosphatpufferlösung
Protocol: In 10 ml Phosphatpufferlösung wurden bei 25°C 0,7 g Hydroxyethyl-β-cyclodextrin (MS 0.43) und 0,04 g Indometacin bis zur klaren Lösung eingearbeitet. Diese wurde durch ein Membranfilter (0,22 µm) filtriert und unter Laminarflow in eine vorsterilisierte Injektionsflasche abgefüllt, die bei 21°C eingelagert wurde (B). Parallel dazu wurde eine gesättigte Indometaeinlösung in Phosphatpufferlösung (0,21 mg/ml) unter gleichen Bedingungen aufbewahrt (A). Die hochdruckflüssigkeitschromatographisch ermittelten Wirkstoff-Konzentrationen sind in Tabelle 3 wiedergegeben. Die wesentlich verbesserte Stabilität des erfindungsgemäßen Präparates ist offensichtlich. Tabelle 3

[5] = Dissolution rate of medroxyprogesterone acetate from tablets; type: physicochemical; settings: tablet with Hydroxyethyl-β-cyclodextrin (MS 0.43) versus same tablet excipients without β-cyclodextrin ether
Protocol: In 100 ml Wasser wurden 7 g Hydroxyethyl-β-cyclodextrin (MS 0.43) sowie 0,5 g Medroxyprogesteronacetat gelöst. Anschließend wurde das Wasser auf einem Rotationsverdampfer abgezogen. Der Rückstand […] wurde pulverisiert und mit 366 mg Calcium-hydrogenphosphat. 2H2O, 60 mg Maisstärke, 120 mg Cellulosepulver(mikrokristallin), 4,2 mg hochdisperse Kieselsäure (Aerosil® 200) und 4,8 mg Magnesiumstearat zu Tabletten mit einem Endgewicht von 630,0 mg und pro Einzeldosis 5 mg Wirkstoff verarbeitet. Die Lösungsgeschwindigkeit des Medroxyprogesteronacetats aus dieser Zubereitung ist etwa 21 mal höher als bei Einsatz der gleichen Tablettenhilfsstoffe ohne Zusatz des β-Cyclodextrinethers.

[6] = Acute intravenous toxicity in rats; type: in vivo, Ratten; settings: rat, in vivo, iv
Description: (§1) Die akute intravenöse Toxizität von einigen β-Cyclodextrinen wurde an Ratten untersucht, wobei die nachfolgenden Ergebnisse erhalten wurden. Dabei zeigte sich, daß die Toxizität der erfindungsgemäß eingesetzten Derivate überraschend eine ganze Größenordnung niedriger ist. Tabelle 5

[7] = in water; cited from earlier work
Ratten = test: Acute intravenous toxicity in rats; type: in vivo; settings: rat, i.v.
Description: as §1

[8] = test system: roten Blutkörperchen (menschlichen Ursprungs); type: cell-based; settings: human, 30 min
Protocol: In einer weiteren Versuchsreihe wurde die hämolytische Wirkung der Methylether gemäß DE-A-3 118 218 mit derjenigen eines erfindungsgemäß verwendeten Ethers verglichen. Dazu wurden 100 µl einer physiologischen Kochsalzlösung mit einem Cyclodextringehalt von 10 %, 800 µl eines Puffers (400 mg MOPS, 36 mg Na2HPO4·2 H2O, 1,6 g NaCl in 200 ml H2O) und 100 µl einer Suspension von roten Blutkörperchen (menschlichen Ursprungs, dreimal mit Kochsalzlösung gewaschen), 30 Min. lang bei 37°C gemischt. Anschließend wurde zentrifugiert und die Extinktion bei 540 mn bestimmt.
Kontrollen: • a) 100 µl Kochsalzlösung + Puffer → 0 % Hämolyse • b) 900 µl Wasser → 100 % Hämolyse
Die gefundenen Ergebnisse sind in der nachfolgenden Tabelle 6 zusammengefaßt, wobei die Konzentrationen angegeben sind, bei denen eine 50 %-ige bzw. eine 100 % Hämolyse stattfand. Tabelle 6

[9] = phosphate buffer, pH 6.6
Description: Die in den Beispielen genannte Phosphatpuffer-Lösung hatte einen pH-Wert von 6.6 und folgende Zusammensetzung:

[10] = in water, 4 % Hydroxypropyl-methyl-β-cyclodextrin

Compound: COc1cc(N)c(Cl)cc1C(=O)NC1CCN(CCCOc2ccc(F)cc2)CC1OC (stereo not drawn) [Cisaprid]
- Verhältnis R von Sättigungslöslichkeit mit und ohne Zusatz des β-Cyclodextrinderivats [1]: 3

Compound: C[C@@H]1C[C@H]2[C@@H]3CCC4=CC(=O)C=C[C@]4(C)[C@@]3(F)[C@@H](O)C[C@]2(C)[C@@]1(O)C(=O)CO [Dexamethason]
- Verh.S1 zu S2 [2]: 172,0
- solubility thermodynamic at 24 h ([2]; 10% hp-beta-cd, pH 6.6): 14300 µg/mL (≈ 36400 µM)
- solubility thermodynamic at 24 h ([2]; pH 6.6, aqueous buffer): 83 µg/mL (≈ 211 µM)

Compound: CN1C(=O)CN=C(c2ccccc2)c2cc(Cl)ccc21 [Diazepam]
- Verh.S1 zu S2 [2]: 29,4

Compound: C[C@H]1O[C@@H](O[C@H]2[C@@H](O)C[C@H](O[C@H]3[C@@H](O)C[C@H](O[C@H]4CC[C@@]5(C)[C@H](CC[C@@H]6[C@@H]5CC[C@]5(C)[C@@H](C7=CC(=O)OC7)CC[C@]65O)C4)O[C@@H]3C)O[C@@H]2C)C[C@H](O)[C@@H]1O [Digitoxin]
- Steigerung der Löslichkeit in Wasser [3]: 81,6 -fache

Compound: CCOC(=O)c1cncn1[C@H](C)c1ccccc1 [Etomidat]
- Verhältnis R von Sättigungslöslichkeit mit und ohne Zusatz des β-Cyclodextrinderivats [1, 10]: 8,5

Compound: COC(=O)Nc1nc2cc(C(=O)c3ccc(F)cc3)ccc2[nH]1 [Flubendazol]
- Verhältnis R von Sättigungslöslichkeit mit und ohne Zusatz des β-Cyclodextrinderivats [1, 10]: 30

Compound: Fc1ccc(C(c2ccc(F)cc2)N2CCN(C/C=C/c3ccccc3)CC2)cc1 [Flunarizin]
- Verhältnis R von Sättigungslöslichkeit mit und ohne Zusatz des β-Cyclodextrinderivats [1, 10]: 18

Compound: COc1ccc2c(c1)c(CC(=O)O)c(C)n2C(=O)c1ccc(Cl)cc1 [Indometacin]
- Verh.S1 zu S2 [2]: 30,1
- solubility thermodynamic at 24 h ([2]; 10% hp-beta-cd, pH 6.6): 5720 µg/mL (≈ 16000 µM)
- solubility thermodynamic at 24 h ([2]; pH 6.6, aqueous buffer): 190 µg/mL (≈ 531 µM)
- solubility [4]: 210 µg/mL (≈ 587 µM)

Compound: CCC(C)n1ncn(-c2ccc(N3CCN(c4ccc(OCC5COC(Cn6cncn6)(c6ccc(Cl)cc6Cl)O5)cc4)CC3)cc2)c1=O (stereo not drawn) [Itraconazol]
- Verhältnis R von Sättigungslöslichkeit mit und ohne Zusatz des β-Cyclodextrinderivats ([1]; pH 2): 75
- Verhältnis R von Sättigungslöslichkeit mit und ohne Zusatz des β-Cyclodextrinderivats ([1]; pH 5): 96

Compound: CC(=O)N1CCN(c2ccc(OCC3COC(Cn4ccnc4)(c4ccc(Cl)cc4Cl)O3)cc2)CC1 (stereo not drawn) [Ketoconazol]
- Verhältnis R von Sättigungslöslichkeit mit und ohne Zusatz des β-Cyclodextrinderivats [1]: 85

Compound: CN(C)C(=O)C(CCN1CCC(O)(c2ccc(Cl)cc2)CC1)(c1ccccc1)c1ccccc1 [Loperamid]
- Verhältnis R von Sättigungslöslichkeit mit und ohne Zusatz des β-Cyclodextrinderivats [1, 10]: 62

Compound: CC(=O)OC1(C(C)=O)CCC2C3CC(C)C4=CC(=O)CCC4(C)C3CCC21C (stereo not drawn) [Medroxyprogesteronacetat]
- Lösungsgeschwindigkeit [5]: ~21 mal höher

Compound: CC(=O)[C@H]1CC[C@H]2[C@@H]3CCC4=CC(=O)CC[C@]4(C)[C@H]3CC[C@]12C [Progesteron]
- Verh.S1 zu S2 [2]: 1083,0
- solubility thermodynamic at 24 h ([2]; 10% hp-beta-cd, pH 6.6): 7690 µg/mL (≈ 24500 µM)
- solubility thermodynamic at 24 h ([2]; pH 6.6, aqueous buffer): 7.1 µg/mL (≈ 22.6 µM)

Compound: OC[C@H]1O[C@@H]2O[C@H]3[C@H](O)[C@@H](O)[C@@H](O[C@H]4[C@H](O)[C@@H](O)[C@@H](O[C@H]5[C@H](O)[C@@H](O)[C@@H](O[C@H]6[C@H](O)[C@@H](O)[C@@H](O[C@H]7[C@H](O)[C@@H](O)[C@@H](O[C@H]8[C@H](O)[C@@H](O)[C@@H](O[C@H]1[C@H](O)[C@H]2O)O[C@@H]8CO)O[C@@H]7CO)O[C@@H]6CO)O[C@@H]5CO)O[C@@H]4CO)O[C@@H]3CO [β-Cyclodextrin]
- LD50 [6]: 453 mg/kg
- Wasserlöslichkeit [7]: 1,8 g pro 100 ml

Compound: Dimethyl-β-cyclodextrin [Dimethyl-β-cyclodextrin (DS = 2,0)]
- LD50 bei Ratten (i.v.) (Ratten): 200 - 207 mg/kg Körpergewicht
- C50 % (Konzentration, bei der eine 50 %-ige Hämolyse stattfand) [8]: 0,33%
- C100 % (Konzentration, bei der eine 100 % Hämolyse stattfand) [8]: 0,5%

Compound: Hydroxyethyl-β-cyclodextrin [Hydroxyethyl-β-cyclodextrin (MS 0.43)]
- Sättigungslöslichkeit des Cyclodextrinderivates im Puffer [9]: 7,2 g/100 ml

Compound: Hydroxypropyl-methyl-β-cyclodextrin
- LD50 bei Ratten (i.v.) (Ratten): > 2000* mg/kg Körpergewicht
- C50 % (Konzentration, bei der eine 50 %-ige Hämolyse stattfand) [8]: 1,5%
- C100 % (Konzentration, bei der eine 100 % Hämolyse stattfand) [8]: 4%
- hämolytische Wirkung [8]: 5 bis 8 mal geringer

Compound: Levocabastin
- Verhältnis R von Sättigungslöslichkeit mit und ohne Zusatz des β-Cyclodextrinderivats ([1]; pH 7,4, 4 % Hydroxypropyl-methyl-β-cyclodextrin): 8
- Verhältnis R von Sättigungslöslichkeit mit und ohne Zusatz des β-Cyclodextrinderivats ([1]; pH 9,5, 4 % Hydroxypropyl-methyl-β-cyclodextrin): 81

Compound: Methyl-β-CD [Methyl-β-CD (DS = 1,79)]
- C50 % (Konzentration, bei der eine 50 %-ige Hämolyse stattfand) [8]: 0,53%
- C100 % (Konzentration, bei der eine 100 % Hämolyse stattfand) [8]: 0,8%

Compound: Tubulazol
- Verhältnis R von Sättigungslöslichkeit mit und ohne Zusatz des β-Cyclodextrinderivats [1, 10]: 43
